Laboratory results: ChEMBL document CHEMBL1909046, “DrugMatrix in vitro pharmacology data”

Target: Tyrosine-protein kinase Lck (Homo sapiens, UniProt P06239)
Test: DRUGMATRIX: Protein Tyrosine Kinase, LCK enzyme inhibition (substrate: Poly(Glu:Tyr))
Format: cell-based, Insect cells
Conditions: insect cells; Not Active = under 50% inhibition at 10 µM

Tyrosine-protein kinase Lck, sequence (P06239 whole entry): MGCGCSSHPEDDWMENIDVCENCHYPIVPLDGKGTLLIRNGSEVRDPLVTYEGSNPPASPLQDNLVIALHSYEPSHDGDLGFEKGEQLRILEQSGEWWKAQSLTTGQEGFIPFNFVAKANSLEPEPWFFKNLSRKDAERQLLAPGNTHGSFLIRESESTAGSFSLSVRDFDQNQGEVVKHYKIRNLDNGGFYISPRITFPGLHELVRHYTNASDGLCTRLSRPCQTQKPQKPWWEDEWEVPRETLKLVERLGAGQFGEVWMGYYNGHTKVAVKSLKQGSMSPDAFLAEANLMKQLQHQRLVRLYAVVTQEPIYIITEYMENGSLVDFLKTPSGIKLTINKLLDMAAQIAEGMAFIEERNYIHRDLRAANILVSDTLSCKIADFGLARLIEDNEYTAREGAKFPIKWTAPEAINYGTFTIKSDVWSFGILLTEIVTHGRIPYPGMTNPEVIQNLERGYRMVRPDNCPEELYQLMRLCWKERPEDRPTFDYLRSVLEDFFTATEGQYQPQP

SMILES	IC50
Cn1c(=O)c2[nH]cnc2n(C)c1=O.Cn1c(=O)c2[nH]cnc2n(C)c1=O.NCCN [AMINOPHYLLINE]	Not Active
CCC1(CCC(C)C)C(=O)NC(=O)NC1=O [AMOBARBITAL]	Not Active
CC1(C)S[C@@H]2[C@H](NC(=O)[C@H](N)c3ccccc3)C(=O)N2[C@H]1C(=O)O [AMPICILLIN]	Not Active
COc1ccc(C2C(=O)c3ccccc3C2=O)cc1 [ANISINDIONE]	Not Active
O=C1O[C@H]([C@@H](O)CO)C(O)=C1O [ASCORBIC ACID]	Not Active
CC(C(=O)O)c1ccc2oc(-c3ccc(Cl)cc3)nc2c1 (stereo unspecified) [BENOXAPROFEN]	Not Active

Tested on: not listed separately
Test: DRUGMATRIX: Glutamate, NMDA, Phencyclidine radioligand binding (ligand: [3H] TCP)
Format: cell membranes, Rattus norvegicus, Wistar, Cerebral cortex, Membrane
Conditions: Not Active = under 50% inhibition at 10 µM

SMILES	IC50	Ki
Cn1c(=O)c2[nH]cnc2n(C)c1=O.Cn1c(=O)c2[nH]cnc2n(C)c1=O.NCCN [AMINOPHYLLINE]	Not Active	Not Active
CCC1(CCC(C)C)C(=O)NC(=O)NC1=O [AMOBARBITAL]	Not Active	Not Active
CC1(C)S[C@@H]2[C@H](NC(=O)[C@H](N)c3ccccc3)C(=O)N2[C@H]1C(=O)O [AMPICILLIN]	Not Active	Not Active
COc1ccc(C2C(=O)c3ccccc3C2=O)cc1 [ANISINDIONE]	Not Active	Not Active
O=C1O[C@H]([C@@H](O)CO)C(O)=C1O [ASCORBIC ACID]	Not Active	Not Active
CC(C(=O)O)c1ccc2oc(-c3ccc(Cl)cc3)nc2c1 (stereo unspecified) [BENOXAPROFEN]	Not Active	Not Active

Target: T1, D(4) dopamine receptor (Homo sapiens, UniProt P21917)
T1 sequence (P21917 whole entry): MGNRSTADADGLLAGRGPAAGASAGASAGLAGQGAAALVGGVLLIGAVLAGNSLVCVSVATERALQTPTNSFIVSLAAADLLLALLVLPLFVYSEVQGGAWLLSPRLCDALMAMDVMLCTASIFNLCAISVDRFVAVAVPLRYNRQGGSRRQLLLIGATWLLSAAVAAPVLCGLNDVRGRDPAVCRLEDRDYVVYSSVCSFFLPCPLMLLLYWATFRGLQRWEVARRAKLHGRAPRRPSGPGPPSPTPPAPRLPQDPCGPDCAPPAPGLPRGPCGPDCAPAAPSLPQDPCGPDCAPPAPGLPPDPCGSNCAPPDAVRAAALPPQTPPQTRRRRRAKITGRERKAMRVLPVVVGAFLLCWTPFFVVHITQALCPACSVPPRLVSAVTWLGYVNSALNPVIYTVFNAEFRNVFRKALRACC
Test: DRUGMATRIX: Dopamine D4.2 radioligand binding (ligand: [3H] Spiperone)
Format: cell membranes, CHO-K1, Membrane
Conditions: cho-k1; Not Active = under 50% inhibition at 10 µM

SMILES	IC50
Cn1c(=O)c2[nH]cnc2n(C)c1=O.Cn1c(=O)c2[nH]cnc2n(C)c1=O.NCCN [AMINOPHYLLINE]	Not Active
CCC1(CCC(C)C)C(=O)NC(=O)NC1=O [AMOBARBITAL]	Not Active
CC1(C)S[C@@H]2[C@H](NC(=O)[C@H](N)c3ccccc3)C(=O)N2[C@H]1C(=O)O [AMPICILLIN]	Not Active
COc1ccc(C2C(=O)c3ccccc3C2=O)cc1 [ANISINDIONE]	Not Active
O=C1O[C@H]([C@@H](O)CO)C(O)=C1O [ASCORBIC ACID]	Not Active
CC(C(=O)O)c1ccc2oc(-c3ccc(Cl)cc3)nc2c1 (stereo unspecified) [BENOXAPROFEN]	Not Active

Target: Cytochrome P450 2C19 (Homo sapiens, UniProt P33261); further: in other assays of this panel Not Active means under 50% inhibition at 10 µM
Sequence (P33261 whole entry): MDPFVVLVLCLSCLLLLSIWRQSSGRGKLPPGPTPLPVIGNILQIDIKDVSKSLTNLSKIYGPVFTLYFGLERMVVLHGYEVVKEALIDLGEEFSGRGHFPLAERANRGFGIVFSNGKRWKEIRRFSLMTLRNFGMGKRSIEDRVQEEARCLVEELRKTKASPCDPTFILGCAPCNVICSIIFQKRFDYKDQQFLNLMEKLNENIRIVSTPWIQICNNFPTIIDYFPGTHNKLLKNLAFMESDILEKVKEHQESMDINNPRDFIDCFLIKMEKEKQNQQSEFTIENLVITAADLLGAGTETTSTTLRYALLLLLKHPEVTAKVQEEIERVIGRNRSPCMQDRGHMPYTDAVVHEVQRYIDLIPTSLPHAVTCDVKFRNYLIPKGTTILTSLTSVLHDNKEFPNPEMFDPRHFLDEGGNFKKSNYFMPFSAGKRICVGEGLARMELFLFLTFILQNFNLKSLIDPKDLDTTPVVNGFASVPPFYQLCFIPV
Conditions: bti-tn-5b1-4

SMILES	IC50	Ki
Cn1c(=O)c2[nH]cnc2n(C)c1=O.Cn1c(=O)c2[nH]cnc2n(C)c1=O.NCCN [AMINOPHYLLINE]	Not Active	Not Active
CCC1(CCC(C)C)C(=O)NC(=O)NC1=O [AMOBARBITAL]	Not Active	Not Active
CC1(C)S[C@@H]2[C@H](NC(=O)[C@H](N)c3ccccc3)C(=O)N2[C@H]1C(=O)O [AMPICILLIN]	Not Active	Not Active
COc1ccc(C2C(=O)c3ccccc3C2=O)cc1 [ANISINDIONE]	Not Active	Not Active
O=C1O[C@H]([C@@H](O)CO)C(O)=C1O [ASCORBIC ACID]	Not Active	Not Active
CC(C(=O)O)c1ccc2oc(-c3ccc(Cl)cc3)nc2c1 (stereo unspecified) [BENOXAPROFEN]	Not Active	Not Active

Target: T2, Nitric oxide synthase, inducible (Mus musculus, UniProt P29477);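 further: inhibition of iNOS enzyme activity measured with L-arginine as substrate; in other assays of this panel Not Active means under 50% inhibition at 10 µM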
T2 sequence (P29477 whole entry): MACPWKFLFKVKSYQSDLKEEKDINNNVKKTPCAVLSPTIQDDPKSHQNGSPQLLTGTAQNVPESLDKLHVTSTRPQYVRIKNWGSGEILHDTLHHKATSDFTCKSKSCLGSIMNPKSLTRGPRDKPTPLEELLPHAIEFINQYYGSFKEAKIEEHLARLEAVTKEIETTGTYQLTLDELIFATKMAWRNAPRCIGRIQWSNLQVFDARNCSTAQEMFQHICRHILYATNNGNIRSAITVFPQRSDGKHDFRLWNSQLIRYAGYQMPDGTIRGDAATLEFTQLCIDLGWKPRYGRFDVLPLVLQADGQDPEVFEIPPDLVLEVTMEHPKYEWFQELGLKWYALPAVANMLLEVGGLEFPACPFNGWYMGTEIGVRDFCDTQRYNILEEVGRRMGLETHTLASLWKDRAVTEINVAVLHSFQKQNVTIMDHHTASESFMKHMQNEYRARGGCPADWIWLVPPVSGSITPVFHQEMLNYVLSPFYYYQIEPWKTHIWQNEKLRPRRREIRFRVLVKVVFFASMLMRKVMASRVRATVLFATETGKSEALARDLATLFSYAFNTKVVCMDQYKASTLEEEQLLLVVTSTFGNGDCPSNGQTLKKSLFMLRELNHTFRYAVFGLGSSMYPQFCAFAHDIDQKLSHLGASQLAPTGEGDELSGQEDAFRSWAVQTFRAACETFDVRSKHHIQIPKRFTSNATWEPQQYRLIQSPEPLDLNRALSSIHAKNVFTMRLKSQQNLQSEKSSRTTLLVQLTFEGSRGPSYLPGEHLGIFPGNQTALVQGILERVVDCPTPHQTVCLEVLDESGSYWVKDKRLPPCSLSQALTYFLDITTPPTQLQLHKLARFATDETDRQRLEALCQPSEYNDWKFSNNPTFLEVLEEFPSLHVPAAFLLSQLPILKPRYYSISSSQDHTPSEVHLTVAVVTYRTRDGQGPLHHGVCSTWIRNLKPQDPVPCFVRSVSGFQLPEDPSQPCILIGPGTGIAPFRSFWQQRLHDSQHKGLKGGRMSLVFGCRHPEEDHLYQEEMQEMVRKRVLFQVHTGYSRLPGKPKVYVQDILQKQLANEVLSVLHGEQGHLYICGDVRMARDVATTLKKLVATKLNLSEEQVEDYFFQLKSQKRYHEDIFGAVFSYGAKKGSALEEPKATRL
Design: species or system Escherichia coli
Conditions: not given

SMILES	IC50
Cn1c(=O)c2[nH]cnc2n(C)c1=O.Cn1c(=O)c2[nH]cnc2n(C)c1=O.NCCN [AMINOPHYLLINE]	Not Active
CCC1(CCC(C)C)C(=O)NC(=O)NC1=O [AMOBARBITAL]	Not Active
CC1(C)S[C@@H]2[C@H](NC(=O)[C@H](N)c3ccccc3)C(=O)N2[C@H]1C(=O)O [AMPICILLIN]	Not Active
COc1ccc(C2C(=O)c3ccccc3C2=O)cc1 [ANISINDIONE]	Not Active
O=C1O[C@H]([C@@H](O)CO)C(O)=C1O [ASCORBIC ACID]	Not Active
CC(C(=O)O)c1ccc2oc(-c3ccc(Cl)cc3)nc2c1 (stereo unspecified) [BENOXAPROFEN]	Not Active

Target: T3, Cytochrome P450 1A2 (Homo sapiens, UniProt P05177); further: in other assays of this panel Not Active means under 50% inhibition at 10 µM
T3 sequence (P05177 whole entry): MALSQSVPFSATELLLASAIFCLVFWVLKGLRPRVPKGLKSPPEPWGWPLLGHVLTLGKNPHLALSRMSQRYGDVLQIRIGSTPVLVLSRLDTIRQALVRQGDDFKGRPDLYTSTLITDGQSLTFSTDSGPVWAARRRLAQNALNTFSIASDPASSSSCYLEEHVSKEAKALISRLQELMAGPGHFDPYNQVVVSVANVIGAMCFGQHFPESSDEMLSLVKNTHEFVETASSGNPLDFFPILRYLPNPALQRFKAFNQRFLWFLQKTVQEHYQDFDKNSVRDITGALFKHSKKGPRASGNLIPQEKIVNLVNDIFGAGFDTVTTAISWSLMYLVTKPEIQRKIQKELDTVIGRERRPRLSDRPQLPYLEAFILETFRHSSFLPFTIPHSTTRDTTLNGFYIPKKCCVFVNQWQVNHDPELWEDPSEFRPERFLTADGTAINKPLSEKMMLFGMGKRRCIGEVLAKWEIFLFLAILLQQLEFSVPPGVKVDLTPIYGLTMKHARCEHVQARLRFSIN
Conditions: bti-tn-5b1-4

SMILES	IC50	Ki
Cn1c(=O)c2[nH]cnc2n(C)c1=O.Cn1c(=O)c2[nH]cnc2n(C)c1=O.NCCN [AMINOPHYLLINE]	Not Active	Not Active
CCC1(CCC(C)C)C(=O)NC(=O)NC1=O [AMOBARBITAL]	Not Active	Not Active
CC1(C)S[C@@H]2[C@H](NC(=O)[C@H](N)c3ccccc3)C(=O)N2[C@H]1C(=O)O [AMPICILLIN]	Not Active	Not Active
COc1ccc(C2C(=O)c3ccccc3C2=O)cc1 [ANISINDIONE]	Not Active	Not Active
O=C1O[C@H]([C@@H](O)CO)C(O)=C1O [ASCORBIC ACID]	Not Active	Not Active
CC(C(=O)O)c1ccc2oc(-c3ccc(Cl)cc3)nc2c1 (stereo unspecified) [BENOXAPROFEN]	Not Active	Not Active

Target: Mitogen-activated protein kinase 1 (Homo sapiens, UniProt P28482)
Sequence (P28482 whole entry): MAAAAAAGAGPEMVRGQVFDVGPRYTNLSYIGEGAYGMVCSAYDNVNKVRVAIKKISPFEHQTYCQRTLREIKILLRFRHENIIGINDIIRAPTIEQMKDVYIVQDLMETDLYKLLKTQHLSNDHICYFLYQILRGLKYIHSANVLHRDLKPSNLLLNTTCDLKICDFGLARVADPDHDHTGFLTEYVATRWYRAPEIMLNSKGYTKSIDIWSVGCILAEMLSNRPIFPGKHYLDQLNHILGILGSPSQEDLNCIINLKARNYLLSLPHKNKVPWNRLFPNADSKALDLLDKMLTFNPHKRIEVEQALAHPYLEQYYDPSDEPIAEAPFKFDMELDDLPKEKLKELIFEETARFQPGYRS
Test: DRUGMATRIX: Protein Serine/Threonine Kinase, ERK2 enzyme inhibition (substrate: Myelin Basic Protein)
Design: species or system Escherichia coli
Conditions: Not Active = under 50% inhibition at 10 µM

SMILES	IC50
Cn1c(=O)c2[nH]cnc2n(C)c1=O.Cn1c(=O)c2[nH]cnc2n(C)c1=O.NCCN [AMINOPHYLLINE]	Not Active
CCC1(CCC(C)C)C(=O)NC(=O)NC1=O [AMOBARBITAL]	Not Active
CC1(C)S[C@@H]2[C@H](NC(=O)[C@H](N)c3ccccc3)C(=O)N2[C@H]1C(=O)O [AMPICILLIN]	Not Active
COc1ccc(C2C(=O)c3ccccc3C2=O)cc1 [ANISINDIONE]	Not Active
O=C1O[C@H]([C@@H](O)CO)C(O)=C1O [ASCORBIC ACID]	Not Active
CC(C(=O)O)c1ccc2oc(-c3ccc(Cl)cc3)nc2c1 (stereo unspecified) [BENOXAPROFEN]	Not Active

Target: Carbonic anhydrase 2 (Homo sapiens, UniProt P00918)
Test: DRUGMATRIX: Carbonic Anhydrase II enzyme inhibition (substrate: 4-Nitrophenyl acetate (4-NPA))
Format: tissue-based
Conditions: erythrocyte; Not Active = under 50% inhibition at 10 µM

SMILES	IC50
Cn1c(=O)c2[nH]cnc2n(C)c1=O.Cn1c(=O)c2[nH]cnc2n(C)c1=O.NCCN [AMINOPHYLLINE]	Not Active
CCC1(CCC(C)C)C(=O)NC(=O)NC1=O [AMOBARBITAL]	Not Active
CC1(C)S[C@@H]2[C@H](NC(=O)[C@H](N)c3ccccc3)C(=O)N2[C@H]1C(=O)O [AMPICILLIN]	Not Active
COc1ccc(C2C(=O)c3ccccc3C2=O)cc1 [ANISINDIONE]	Not Active
O=C1O[C@H]([C@@H](O)CO)C(O)=C1O [ASCORBIC ACID]	Not Active
CC(C(=O)O)c1ccc2oc(-c3ccc(Cl)cc3)nc2c1 (stereo unspecified) [BENOXAPROFEN]	Not Active
